# From ChEMBL document CHEMBL1629662, “Antimicrobial activity of prulifloxacin tested against a worldwide collection of gastroenteritis-producing pathogens, including those causing traveler's diarrhea” (2009)
# Tests used:
# [1] = tested on: Aeromonas veronii; experiment: Antibacterial activity against Aeromonas veronii assessed as percent susceptible isolates by broth microdilution method; type: functional
# [2] = tested on: Shigella boydii; experiment: Antibacterial activity against Shigella boydii by broth microdilution method; type: functional
# [3] = tested on: Campylobacter jejuni; experiment: Antibacterial activity against Campylobacter jejuni assessed as percent resistant isolates by broth microdilution method; type: functional; conditions: pooled result: one value given for 2 cell lines, strains, targets or settings
# [4] = tested on: Vibrio fluvialis; experiment: Antibacterial activity against Vibrio fluvialis by broth microdilution method; type: functional
# [5] = tested on: Escherichia coli; experiment: Antibacterial activity against Escherichia coli assessed as percent susceptible isolates by broth microdilution method; type: functional
# [6] = tested on: Aeromonas caviae; experiment: Antibacterial activity against Aeromonas caviae assessed as percent resistant isolates by broth microdilution method; type: functional
# [7] = tested on: Aeromonas sobria; experiment: Antibacterial activity against Aeromonas sobria assessed as percent resistant isolates by broth microdilution method; type: functional
# [8] = tested on: Salmonella typhimurium; experiment: Antibacterial activity against Salmonella enterica serovar Typhimurium by broth microdilution method; type: functional, Salmonella enterica subsp. enterica serovar Typhimurium
# [9] = tested on: Plesiomonas shigelloides; experiment: Antibacterial activity against Plesiomonas shigelloides assessed as percent susceptible isolates by broth microdilution method; type: functional
# [10] = tested on: Salmonella typhi; experiment: Antibacterial activity against Salmonella enterica serovar Typhi assessed as percent susceptible isolates by broth microdilution method; type: functional, Salmonella enterica subsp. enterica serovar Typhi
# [11] = tested on: Shigella sonnei; experiment: Antibacterial activity against Shigella sonnei assessed as percent resistant isolates by broth microdilution method; type: functional; conditions: pooled result: one value given for 4 cell lines, strains, targets or settings
# [12] = tested on: Aeromonas caviae; experiment: Antibacterial activity against Aeromonas caviae assessed as percent susceptible isolates by broth microdilution method; type: functional
# [13] = tested on: Salmonella enteritidis; experiment: Antibacterial activity against Salmonella enterica serovar Enteritidis by broth microdilution method; type: functional, Salmonella enterica subsp. enterica serovar Enteritidis
# [14] = tested on: Shigella boydii; experiment: Antibacterial activity against Shigella boydii assessed as percent susceptible isolates by broth microdilution method; type: functional; conditions: pooled result: one value given for 3 cell lines, strains, targets or settings
# [15] = tested on: Vibrio cholerae; experiment: Antibacterial activity against Vibrio cholerae by broth microdilution method; type: functional
# [16] = tested on: Vibrio sp.; experiment: Antibacterial activity against Vibrio sp. by broth microdilution method; type: functional
# [17] = tested on: Shigella dysenteriae; experiment: Antibacterial activity against Shigella dysenteriae by broth microdilution method; type: functional
# [18] = tested on: Aeromonas caviae; experiment: Antibacterial activity against Aeromonas caviae by broth microdilution method; type: functional
# [19] = tested on: Vibrio vulnificus; experiment: Antibacterial activity against Vibrio vulnificus by broth microdilution method; type: functional
# [20] = tested on: Campylobacter jejuni; experiment: Antibacterial activity against Campylobacter jejuni by broth microdilution method; type: functional
# [21] = tested on: Yersinia enterocolitica; experiment: Antibacterial activity against Yersinia enterocolitica assessed as percent susceptible isolates by broth microdilution method; type: functional
# [22] = tested on: Salmonella typhimurium; experiment: Antibacterial activity against Salmonella enterica serovar Typhimurium assessed as percent resistant isolates by broth microdilution method; type: functional, Salmonella enterica subsp. enterica serovar Typhimurium; conditions: pooled result: one value given for 8 cell lines, strains, targets or settings
# [23] = tested on: Yersinia enterocolitica; experiment: Antibacterial activity against Yersinia enterocolitica by broth microdilution method; type: functional
# [24] = tested on: Salmonella enteritidis; experiment: Antibacterial activity against Salmonella enterica serovar Enteritidis assessed as percent susceptible isolates by broth microdilution method; type: functional, Salmonella enterica subsp. enterica serovar Enteritidis; conditions: pooled result: one value given for 5 cell lines, strains, targets or settings
# [25] = tested on: Salmonella paratyphi; experiment: Antibacterial activity against Salmonella enterica serovar Paratyphi by broth microdilution method; type: functional, Salmonella enterica subsp. enterica serovar Paratyphi A
# [26] = tested on: Plesiomonas shigelloides; experiment: Antibacterial activity against Plesiomonas shigelloides by broth microdilution method; type: functional
# [27] = tested on: Shigella dysenteriae; experiment: Antibacterial activity against Shigella dysenteriae assessed as percent susceptible isolates by broth microdilution method; type: functional
# [28] = tested on: Shigella sonnei; experiment: Antibacterial activity against Shigella sonnei by broth microdilution method; type: functional
# [29] = tested on: Aeromonas hydrophila; experiment: Antibacterial activity against Aeromonas hydrophila assessed as percent susceptible isolates by broth microdilution method; type: functional
# [30] = tested on: Shigella flexneri; experiment: Antibacterial activity against Shigella flexneri by broth microdilution method; type: functional
# [31] = tested on: Aeromonas sobria; experiment: Antibacterial activity against Aeromonas sobria assessed as percent susceptible isolates by broth microdilution method; type: functional
# [32] = tested on: Aeromonas hydrophila; experiment: Antibacterial activity against Aeromonas hydrophila assessed as percent resistant isolates by broth microdilution method; type: functional
# [33] = tested on: Vibrio alginolyticus; experiment: Antibacterial activity against Vibrio alginolyticus by broth microdilution method; type: functional
# [34] = tested on: Aeromonas sobria; experiment: Antibacterial activity against Aeromonas sobria by broth microdilution method; type: functional
# [35] = tested on: Yersinia pseudotuberculosis; experiment: Antibacterial activity against Yersinia pseudotuberculosis assessed as percent susceptible isolates by broth microdilution method; type: functional
# [36] = tested on: Vibrio parahaemolyticus; experiment: Antibacterial activity against Vibrio parahaemolyticus by broth microdilution method; type: functional
# [37] = tested on: Yersinia enterocolitica; experiment: Antibacterial activity against Yersinia enterocolitica assessed as percent resistant isolates by broth microdilution method; type: functional
# [38] = tested on: Escherichia coli; experiment: Antibacterial activity against Escherichia coli assessed as percent resistant isolates by broth microdilution method; type: functional
# [39] = tested on: Salmonella paratyphi; experiment: Antibacterial activity against Salmonella enterica serovar Paratyphi assessed as percent susceptible isolates by broth microdilution method; type: functional, Salmonella enterica subsp. enterica serovar Paratyphi A
# [40] = tested on: Escherichia coli; experiment: Antibacterial activity against Escherichia coli by broth microdilution method; type: functional
# [41] = tested on: Campylobacter coli; experiment: Antibacterial activity against Campylobacter coli by broth microdilution method; type: functional
# [42] = tested on: Aeromonas veronii; experiment: Antibacterial activity against Aeromonas veronii by broth microdilution method; type: functional
# [43] = tested on: Yersinia pseudotuberculosis; experiment: Antibacterial activity against Yersinia pseudotuberculosis by broth microdilution method; type: functional
# [44] = tested on: Plesiomonas shigelloides; experiment: Antibacterial activity against Plesiomonas shigelloides assessed as percent resistant isolates by broth microdilution method; type: functional
# [45] = tested on: Aeromonas hydrophila; experiment: Antibacterial activity against Aeromonas hydrophila by broth microdilution method; type: functional
# [46] = tested on: Campylobacter jejuni; experiment: Antibacterial activity against Campylobacter jejuni assessed as percent susceptible isolates by broth microdilution method; type: functional; conditions: pooled result: one value given for 2 cell lines, strains, targets or settings
# [47] = tested on: Aeromonas veronii; experiment: Antibacterial activity against Aeromonas veronii assessed as percent resistant isolates by broth microdilution method; type: functional
# [48] = Antibacterial activity against Salmonella enterica serovar Virchow by broth microdilution method; type: functional, Salmonella enterica subsp. enterica serovar Virchow
# [49] = Antibacterial activity against Salmonella enterica serovar Choleraesuis assessed as percent susceptible isolates by broth microdilution method; type: functional, Salmonella enterica subsp. enterica serovar Choleraesuis
# [50] = Antibacterial activity against Salmonella enterica serovar Heidelberg by broth microdilution method; type: functional, Salmonella enterica subsp. enterica serovar Heidelberg
# [51] = Antibacterial activity against Salmonella enterica serovar Newport by broth microdilution method; type: functional, Salmonella enterica subsp. enterica serovar Newport
# [52] = tested on: Salmonella typhi; experiment: Antibacterial activity against Salmonella enterica serovar Typhi by broth microdilution method; type: functional, Salmonella enterica subsp. enterica serovar Typhi
# [53] = Antibacterial activity against Salmonella enterica serovar Choleraesuis by broth microdilution method; type: functional, Salmonella enterica subsp. enterica serovar Choleraesuis
smiles,measurement,setting,value
O=C(O)c1cn(C2CC2)c2cc(N3CCNCC3)c(F)cc2c1=O [CIPROFLOXACIN],Activity,[1],98%
same,MIC50,[2],8 ng/mL
same,MIC90,[2],0.016 µg/mL
same,Activity,[3],16.5%
same,MIC50,[4],0.016 µg/mL
same,MIC90,[4],0.06 µg/mL
same,Activity,[5],97%
same,Activity,[6],2%
same,Activity,[7],2%
same,MIC50,[8],8 ng/mL
same,MIC90,[8],0.12 µg/mL
same,Activity,[9],100%
same,Activity,[10],100%
same,Activity,[11],0%
same,Activity,[12],98%
same,MIC50,[13],8 ng/mL
same,MIC90,[13],0.12 µg/mL
same,Activity,[14],100%
same,MIC50,[15],0.016 µg/mL
same,MIC90,[15],0.06 µg/mL
same,MIC50,[16],0.016 µg/mL
same,MIC90,[16],0.06 µg/mL
same,MIC50,[17],8 ng/mL
same,MIC90,[17],0.016 µg/mL
same,MIC50,[18],4 ng/mL
same,MIC90,[18],0.06 µg/mL
same,MIC50,[19],0.016 µg/mL
same,MIC90,[19],0.06 µg/mL
same,MIC50,[20],0.06 µg/mL
same,MIC90,[20],> 2 µg/mL
same,Activity,[21],100%
same,Activity,[22],0%
same,MIC50,[23],0.016 µg/mL
same,MIC90,[23],0.03 µg/mL
same,Activity,[24],100%
same,MIC,[25],4 ng/mL
same,MIC50,[26],4 ng/mL
same,Activity,[27],100%
same,MIC50,[28],8 ng/mL
same,MIC90,[28],0.016 µg/mL
same,Activity,[29],98%
same,MIC50,[30],8 ng/mL
same,MIC90,[30],0.016 µg/mL
same,Activity,[31],98%
same,Activity,[32],2%
same,MIC50,[33],0.016 µg/mL
same,MIC90,[33],0.06 µg/mL
same,MIC50,[34],4 ng/mL
same,MIC90,[34],0.06 µg/mL
same,Activity,[35],100%
same,MIC50,[36],0.016 µg/mL
same,MIC90,[36],0.06 µg/mL
same,Activity,[37],0%
same,Activity,[38],3%
same,Activity,[39],100%
same,MIC50,[40],8 ng/mL
same,MIC90,[40],0.016 µg/mL
same,MIC50,[41],0.06 µg/mL
same,MIC90,[41],> 2 µg/mL
same,MIC50,[42],4 ng/mL
same,MIC90,[42],0.06 µg/mL
same,MIC50,[43],0.016 µg/mL
same,MIC90,[43],0.03 µg/mL
same,Activity,[44],0%
same,MIC50,[45],4 ng/mL
same,MIC90,[45],0.06 µg/mL
same,Activity,[46],82.6%
same,Activity,[47],2%
CCn1cc(C(=O)O)c(=O)c2ccc(C)nc21 [NALIDIXIC ACID],Activity,[1],81.2%
same,MIC50,[2],≤ 8000 ng/mL
same,MIC90,[2],≤ 8 µg/mL
same,MIC50,[48],≤ 8 µg/mL
same,MIC90,[48],> 32 µg/mL
same,MIC,[4],≤ 8 µg/mL
same,MIC50,[4],≤ 8 µg/mL
same,MIC90,[4],≤ 8 µg/mL
same,Activity,[5],95%
same,Activity,[6],18.8%
same,Activity,[7],18.8%
same,MIC50,[8],≤ 8000 ng/mL
same,MIC90,[8],> 32 µg/mL
same,Activity,[49],84.2%
same,Activity,[9],100%
same,Activity,[10],84.2%
same,Activity,[11],3%
same,MIC50,[50],≤ 8 µg/mL
same,MIC90,[50],> 32 µg/mL
same,Activity,[12],81.2%
same,MIC50,[13],≤ 8000 ng/mL
same,MIC90,[13],> 32 µg/mL
same,Activity,[14],97%
same,MIC,[15],≤ 8 µg/mL
same,MIC50,[15],≤ 8 µg/mL
same,MIC90,[15],≤ 8 µg/mL
same,MIC,[16],≤ 8 µg/mL
same,MIC50,[16],≤ 8 µg/mL
same,MIC90,[16],≤ 8 µg/mL
same,MIC50,[17],≤ 8000 ng/mL
same,MIC90,[17],≤ 8 µg/mL
same,MIC50,[18],≤ 8000 ng/mL
same,MIC90,[18],> 32 µg/mL
same,MIC,[19],≤ 8 µg/mL
same,MIC50,[19],≤ 8 µg/mL
same,MIC90,[19],≤ 8 µg/mL
same,MIC50,[20],≤ 8 µg/mL
same,MIC90,[20],> 32 µg/mL
same,Activity,[21],93.5%
same,Activity,[22],15.8%
same,MIC50,[51],≤ 8 µg/mL
same,MIC90,[51],> 32 µg/mL
same,MIC50,[52],≤ 8 µg/mL
same,MIC90,[52],> 32 µg/mL
same,MIC50,[23],≤ 8 µg/mL
same,MIC90,[23],≤ 8 µg/mL
same,Activity,[24],84.2%
same,MIC50,[25],≤ 8 µg/mL
same,MIC90,[25],> 32 µg/mL
same,MIC,[26],≤ 8 µg/mL
same,MIC50,[26],≤ 8000 ng/mL
same,Activity,[27],97%
same,MIC50,[28],≤ 8000 ng/mL
same,MIC90,[28],≤ 8 µg/mL
same,Activity,[29],81.2%
same,MIC50,[30],≤ 8000 ng/mL
same,MIC90,[30],≤ 8 µg/mL
same,Activity,[31],81.2%
same,Activity,[32],18.8%
same,MIC,[33],≤ 8 µg/mL
same,MIC50,[33],≤ 8 µg/mL
same,MIC90,[33],≤ 8 µg/mL
same,MIC50,[34],≤ 8000 ng/mL
same,MIC90,[34],> 32 µg/mL
same,Activity,[35],93.5%
same,MIC,[36],≤ 8 µg/mL
same,MIC50,[36],≤ 8 µg/mL
same,MIC90,[36],≤ 8 µg/mL
same,Activity,[37],6.5%
same,Activity,[38],5%
same,Activity,[39],84.2%
same,MIC50,[40],≤ 8000 ng/mL
same,MIC90,[40],≤ 8 µg/mL
same,MIC50,[41],≤ 8 µg/mL
same,MIC90,[41],> 32 µg/mL
same,MIC50,[53],≤ 8 µg/mL
same,MIC90,[53],> 32 µg/mL
same,MIC50,[42],≤ 8000 ng/mL
same,MIC90,[42],> 32 µg/mL
same,MIC50,[43],≤ 8 µg/mL
same,MIC90,[43],≤ 8 µg/mL
same,Activity,[44],0%
same,MIC50,[45],≤ 8000 ng/mL
same,MIC90,[45],> 32 µg/mL
same,Activity,[47],18.8%
